From patent US4138403A, “Azabicycloheptanes” (Beecham Group Limited, priority 1975, dated 1979)

How the values were obtained:
Format in all cases: biochemical
[1] = tested on: β-lactamase Citrobac.; experiment: β-lactamase inhibition, Citrobac. enzyme
Description: (§1) The β-lactamase inhibiting activity of certain compounds of the formula (e36) was determined by the method described in Belgian Patent No. 827,926 and the results are shown in Table 1.

[2] = target: β-lactamase Ps. aerug. (Pseudomonas aeruginosa, UniProt P24735); experiment: β-lactamase inhibition, Ps. aerug. enzyme; conditions: read-out: % Inhibition of - lactamases at 40 μg/ml, Ps. aerug.
Description: as §1

[3] = target: β-lactamase E.Coli JT4 (Escherichia coli, UniProt P62593); experiment: β-lactamase inhibition, E.Coli JT4 enzyme; conditions: read-out: % Inhibition of - lactamases at 40 μg/ml, E.Coli JT4
Description: as §1

[4] = tested on: β-lactamase Kleb. ε 70; experiment: β-lactamase inhibition, Kleb. ε 70 enzyme
Description: as §1

[5] = target: β-lactamase Ps. dalgl. (Pseudomonas aeruginosa, UniProt P16897); experiment: β-lactamase inhibition, Ps. dalgl. enzyme; conditions: read-out: % Inhibition of - lactamases at 40 μg/ml, Ps. dalgl.
Description: as §1

[6] = target: β-lactamase Staph. Russell (Staphylococcus aureus, UniProt P00807); experiment: β-lactamase inhibition, Staph. Russell enzyme; conditions: read-out: % Inhibition of - lactamases at 40 μg/ml, Staph. Russell
Description: as §1

[7] = tested on: β-lactamase Proteus C889; experiment: β-lactamase inhibition, Proteus C889 enzyme
Description: as §1

Sequence of β-lactamase E.Coli JT4 (P62593 24-286 limits assumed): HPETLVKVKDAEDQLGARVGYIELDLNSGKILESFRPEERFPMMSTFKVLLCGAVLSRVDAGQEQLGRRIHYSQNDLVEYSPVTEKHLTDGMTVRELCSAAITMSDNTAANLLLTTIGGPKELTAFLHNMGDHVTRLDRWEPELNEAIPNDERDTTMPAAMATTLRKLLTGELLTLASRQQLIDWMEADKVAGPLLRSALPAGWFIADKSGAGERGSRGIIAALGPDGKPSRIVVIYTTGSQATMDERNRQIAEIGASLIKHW
Sequence of β-lactamase Staph. Russell (P00807 25-281): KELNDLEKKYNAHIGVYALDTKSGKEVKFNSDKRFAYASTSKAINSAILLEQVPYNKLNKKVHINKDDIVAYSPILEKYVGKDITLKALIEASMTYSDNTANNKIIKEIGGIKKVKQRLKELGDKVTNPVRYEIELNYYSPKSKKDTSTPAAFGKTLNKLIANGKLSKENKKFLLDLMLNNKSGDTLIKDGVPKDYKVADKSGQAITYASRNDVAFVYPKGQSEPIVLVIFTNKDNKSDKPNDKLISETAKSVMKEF
Sequence of β-lactamase Ps. dalgl. (P16897 18-288): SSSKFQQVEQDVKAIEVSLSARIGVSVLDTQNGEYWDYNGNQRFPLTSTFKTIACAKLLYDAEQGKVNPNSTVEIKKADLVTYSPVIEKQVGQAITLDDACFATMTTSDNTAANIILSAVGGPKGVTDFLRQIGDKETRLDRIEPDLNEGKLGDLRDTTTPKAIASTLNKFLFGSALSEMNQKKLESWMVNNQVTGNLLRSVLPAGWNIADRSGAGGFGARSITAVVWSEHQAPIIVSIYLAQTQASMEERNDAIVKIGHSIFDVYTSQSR
Sequence of β-lactamase Ps. aerug. (P24735 27-397): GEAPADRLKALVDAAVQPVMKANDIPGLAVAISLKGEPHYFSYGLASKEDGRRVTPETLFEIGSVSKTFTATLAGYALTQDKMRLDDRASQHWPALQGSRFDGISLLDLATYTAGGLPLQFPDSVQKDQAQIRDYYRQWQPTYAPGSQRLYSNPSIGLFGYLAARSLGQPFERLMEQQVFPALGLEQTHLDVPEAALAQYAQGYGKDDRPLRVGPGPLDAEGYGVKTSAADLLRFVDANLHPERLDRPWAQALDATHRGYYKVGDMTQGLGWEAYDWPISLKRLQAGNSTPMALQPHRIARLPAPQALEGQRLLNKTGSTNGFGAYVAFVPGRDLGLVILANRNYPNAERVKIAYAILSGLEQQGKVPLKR

COC(=O)[C@H]1[C@H](CCOS(=O)(=O)c2ccc(C)cc2)O[C@@H]2CC(=O)N21 (relative stereo)
% Inhibition of - lactamases at 40 μg/ml, Citrobac. [1]: 5%
inhibition at 40 µg/mL [2]: 11%
inhibition at 40 µg/mL [3]: 33%
% Inhibition of - lactamases at 40 μg/ml, Kleb. ε 70 [4]: 0%
inhibition at 40 µg/mL [5]: 11%
inhibition at 40 µg/mL [6]: 4%

COC(=O)[C@H]1[C@H](CBr)O[C@@H]2CC(=O)N21 (relative stereo) [CH2 Br, CO2 CH3, (2RS,3RS,5RS)]
I50 values (in parentheses), Citrobac. ([1]; value printed in parentheses): 10.3 µg/mL
inhibition at 40 µg/mL [2]: 8%
% Inhibition of - lactamases at 40 μg/ml, Proteus C889 [7]: 42%
inhibition at 40 µg/mL [3]: 42%
% Inhibition of - lactamases at 40 μg/ml, Kleb. ε 70 [4]: 4%
inhibition at 40 µg/mL [5]: 17%
inhibition at 40 µg/mL [6]: 12%

COC(=O)[C@H]1[C@H](CCO)O[C@@H]2CC(=O)N21 (relative stereo) [CH2 CH2 OH, Me, (2RS,3SR,5RS)]
% Inhibition of - lactamases at 40 μg/ml, Citrobac. [1]: 2%
inhibition at 40 µg/mL [2]: 10%
% Inhibition of - lactamases at 40 μg/ml, Proteus C889 [7]: 29%
inhibition at 40 µg/mL [3]: 15%
% Inhibition of - lactamases at 40 μg/ml, Kleb. ε 70 [4]: 14%
inhibition at 40 µg/mL [5]: 0%
inhibition at 40 µg/mL [6]: 10%

O=C(O)[C@H]1CO[C@@H]2CC(=O)N12 (relative stereo) [H, Na, (2RS,5RS)]
% Inhibition of - lactamases at 40 μg/ml, Citrobac. [1]: 0%
inhibition at 40 µg/mL [2]: 14%
inhibition at 40 µg/mL [3]: 28%
% Inhibition of - lactamases at 40 μg/ml, Kleb. ε 70 [4]: 78%
inhibition at 40 µg/mL [5]: 0%
inhibition at 40 µg/mL [6]: 33%

O=C(OCc1ccccc1)[C@@H]1O[C@@H]2CC(=O)N2[C@H]1C(=O)OCc1ccccc1 [CO2 CH2 Ph, CO2 CH2 Ph, (2R,3R,5R), Dibenzyl (2R, 3R, 5R)-7-oxo-4-oxa-1-azabicyclo-[3.2.0]heptan-2,3-Dicarboxylate]
% Inhibition of - lactamases at 40 μg/ml, Citrobac. [1]: 2%
inhibition at 40 µg/mL [2]: 9%
% Inhibition of - lactamases at 40 μg/ml, Proteus C889 [7]: 23%
inhibition at 40 µg/mL [3]: 65%
% Inhibition of - lactamases at 40 μg/ml, Kleb. ε 70 [4]: 56%
inhibition at 40 µg/mL [5]: 26%
inhibition at 40 µg/mL [6]: 0%
